# Columns and labels:
# Test in all cases: In-water applied herbicidal activity in transplanted paddy rice
# Type in all cases: in vivo
# [1] = tested on: SCPJU = Scirpus juncoides ROXB. (Japanese bulrush)
# Experimental: (§1) Weed seeds or nutlets of the desired test plant species were planted in puddled soil (mud) prepared by mixing a non-sterilized mineral soil (28 percent silt, 18 percent clay, and 54 percent sand, with a pH of about 7.3 to 7.8 and an organic matter content of about 1.0 percent) and water at a ratio of 100 kilograms (kg) of soil to 19 liters (L) of water. The prepared mud was dispensed in 250 mL aliquots into 480 mL non-perforated plastic pots with a surface area of 86.59 cm^2 leaving a headspace of 2.5 to 3 cm in each pot. Rice seeds were planted in Sun Gro MetroMix 306 planting mixture, which typically has a pH of 6.0 to 6.8 and an organic matter content of about 30 percent, in plastic plug trays. Seedlings at the second or third leaf stage of growth were transplanted into 650 mL of mud contained in 960 mL non-perforated plastic pots with a surface area of 86.59 cm^2 four days prior to herbicide application. The paddy was created by filling the 2.5 to 3 cm headspace of the pots with water. When required to ensure good germination and healthy plants, a fungicide treatment and/or other chemical or physical treatment was applied. The plants were grown for 4-14 d in a greenhouse with an approximate 14-h photoperiod which was maintained at about 29° C. during the day and 26° C. during the night. Nutrients were added as Osmocote (17:6:10, Nitrogen:Phosphorus:Potassium (N:P:K)+minor nutrients) at 2 grams (g) per cup. Water was added on a regular basis to maintain the paddy flood, and supplemental lighting was provided with overhead metal halide 1000-Watt lamps as necessary. The plants were employed for testing when they reached the second or third true leaf stage. Treatments consisted of compounds 45, 34, and 66. For technical grade compounds, a weighed amount, determined by the highest rate to be tested, was placed in an individual 120 mL glass vial and was dissolved in 20 mL of acetone to obtain concentrated stock solutions. […] The concentrated stock solutions obtained were diluted with 20 mL of an aqueous mixture containing 2.5% Agri-dex crop oil concentrate (v/v). Applications were made by injecting an appropriate amount of the stock solution into the aqueous layer of the paddy. Control plants were treated in the same manner with the solvent blank. All treated plant material received the same concentration of acetone and crop oil concentrate. The treated plants and control plants were placed in a greenhouse as described above and water was added as needed to maintain a paddy flood. After approximately 3 weeks, the condition of the test plants, compared with that of the untreated plants, was determined visually and scored on a scale of 0 to 100 percent where 0 corresponds to no injury and 100 corresponds to complete kill. By applying the well-accepted probit analysis as described by J. Berkson in Journal of the […], 48, 565 (1953) and by D. Finney in “Probit Analysis” Cambridge University Press (1952) or by plotting the mean data and fitting a logarithmic curve to the portion of the data where there was a dose response using Microsoft Excel®, the above data can be used to calculate GR50 and GR90 values, which are defined as growth reduction factors that correspond to the effective dose of herbicide required to kill or control 50 percent or 90 percent, respectively, of a target plant.
# [2] = tested on: CYPDI = Cyperus difformis L. (small-flower flatsedge)
# Experimental: as §1
# [3] = tested on: ORYSA = Oryza sativa ‘M202’ (rice)
# Experimental: as §1
# [4] = tested on: ECHCG = Echinochloa crus-galli (L.) P.BEAUV. (barnyardgrass)
# Experimental: as §1
# [5] = tested on: MOOVA = Monochoria vaginalis (BURM.f.) C.PRESL ex KUNTH (monochoria)
# Experimental: as §1
# [6] = tested on: ORYSA = Oryza sativa ‘Wells’ (rice)
# Experimental: as §1
# [7] = Table 7, dose to kill or control 50 percent, 21 days after application
# [8] = Table 7, dose to kill or control 90 percent, 21 days after application
compound,measurement,setting,value
"COc1c(C(=O)OCc2ccccc2)nc(-c2ccc(Cl)c(OC)c2F)c(F)c1N [Compound 66, benzyl 4-amino-6-(4-chloro-2-fluoro-3-methoxyphenyl)-5-fluoro-3-methoxypicolinate]",Mean Visual Injury (%)-21 Days After Application SCPJU,"[1]; Table 7, 2.19 g ae/ha",35%
same,Mean Visual Injury (%)-21 Days After Application SCPJU,"[1]; Table 7, 4.38 g ae/ha",78%
same,Mean Visual Injury (%)-21 Days After Application SCPJU,"[1]; Table 7, 8.75 g ae/ha",94%
same,Mean Visual Injury (%)-21 Days After Application SCPJU,"[1]; Table 7, 17.5 g ae/ha",98%
same,Mean Visual Injury (%)-21 Days After Application SCPJU,"[1]; Table 7, 35 g ae/ha",100%
same,Mean Visual Injury (%)-21 Days After Application SCPJU,"[1]; Table 7, 70 g ae/ha",100%
same,Mean Visual Injury (%)-21 Days After Application SCPJU,"[1]; Table 7, 140 g ae/ha",100%
same,GR50 SCPJU,[1]; [7],2.8 g ae/ha
same,GR90 SCPJU,[1]; [8],7.1 g ae/ha
same,Mean Visual Injury (%)-21 Days After Application CYPDI,"[2]; Table 7, 2.19 g ae/ha",0%
same,Mean Visual Injury (%)-21 Days After Application CYPDI,"[2]; Table 7, 4.38 g ae/ha",48%
same,Mean Visual Injury (%)-21 Days After Application CYPDI,"[2]; Table 7, 8.75 g ae/ha",94%
same,Mean Visual Injury (%)-21 Days After Application CYPDI,"[2]; Table 7, 17.5 g ae/ha",100%
same,Mean Visual Injury (%)-21 Days After Application CYPDI,"[2]; Table 7, 35 g ae/ha",100%
same,Mean Visual Injury (%)-21 Days After Application CYPDI,"[2]; Table 7, 70 g ae/ha",100%
same,Mean Visual Injury (%)-21 Days After Application CYPDI,"[2]; Table 7, 140 g ae/ha",100%
same,GR50 CYPDI,[2]; [7],4.5 g ae/ha
same,GR90 CYPDI,[2]; [8],8.2 g ae/ha
same,Mean Visual Injury (%)-21 Days After Application ORYSA ‘M202’,"[3]; Table 7, 2.19 g ae/ha",0%
same,Mean Visual Injury (%)-21 Days After Application ORYSA ‘M202’,"[3]; Table 7, 4.38 g ae/ha",0%
same,Mean Visual Injury (%)-21 Days After Application ORYSA ‘M202’,"[3]; Table 7, 8.75 g ae/ha",0%
same,Mean Visual Injury (%)-21 Days After Application ORYSA ‘M202’,"[3]; Table 7, 17.5 g ae/ha",0%
same,Mean Visual Injury (%)-21 Days After Application ORYSA ‘M202’,"[3]; Table 7, 35 g ae/ha",0%
same,Mean Visual Injury (%)-21 Days After Application ORYSA ‘M202’,"[3]; Table 7, 70 g ae/ha",0%
same,Mean Visual Injury (%)-21 Days After Application ORYSA ‘M202’,"[3]; Table 7, 140 g ae/ha",17%
same,GR50 ORYSA ‘M202’,[3]; [7],>140 g ae/ha
same,GR90 ORYSA ‘M202’,[3]; [8],>140 g ae/ha
same,Mean Visual Injury (%)-21 Days After Application ECHCG,"[4]; Table 7, 2.19 g ae/ha",0%
same,Mean Visual Injury (%)-21 Days After Application ECHCG,"[4]; Table 7, 4.38 g ae/ha",3%
same,Mean Visual Injury (%)-21 Days After Application ECHCG,"[4]; Table 7, 8.75 g ae/ha",6%
same,Mean Visual Injury (%)-21 Days After Application ECHCG,"[4]; Table 7, 17.5 g ae/ha",57%
same,Mean Visual Injury (%)-21 Days After Application ECHCG,"[4]; Table 7, 35 g ae/ha",86%
same,Mean Visual Injury (%)-21 Days After Application ECHCG,"[4]; Table 7, 70 g ae/ha",99%
same,Mean Visual Injury (%)-21 Days After Application ECHCG,"[4]; Table 7, 140 g ae/ha",100%
same,GR50 ECHCG,[4]; [7],17.4 g ae/ha
same,GR90 ECHCG,[4]; [8],53.7 g ae/ha
same,Mean Visual Injury (%)-21 Days After Application MOOVA,"[5]; Table 7, 2.19 g ae/ha",0%
same,Mean Visual Injury (%)-21 Days After Application MOOVA,"[5]; Table 7, 4.38 g ae/ha",100%
same,Mean Visual Injury (%)-21 Days After Application MOOVA,"[5]; Table 7, 8.75 g ae/ha",100%
same,Mean Visual Injury (%)-21 Days After Application MOOVA,"[5]; Table 7, 17.5 g ae/ha",100%
same,Mean Visual Injury (%)-21 Days After Application MOOVA,"[5]; Table 7, 35 g ae/ha",100%
same,Mean Visual Injury (%)-21 Days After Application MOOVA,"[5]; Table 7, 70 g ae/ha",100%
same,Mean Visual Injury (%)-21 Days After Application MOOVA,"[5]; Table 7, 140 g ae/ha",100%
same,GR50 MOOVA,[5]; [7],<4.38 g ae/ha
same,GR90 MOOVA,[5]; [8],<4.38 g ae/ha
same,Mean Visual Injury (%)-21 Days After Application ORYSA ‘Wells’,"[6]; Table 7, 8.75 g ae/ha",0%
same,Mean Visual Injury (%)-21 Days After Application ORYSA ‘Wells’,"[6]; Table 7, 17.5 g ae/ha",0%
same,Mean Visual Injury (%)-21 Days After Application ORYSA ‘Wells’,"[6]; Table 7, 35 g ae/ha",0%
same,Mean Visual Injury (%)-21 Days After Application ORYSA ‘Wells’,"[6]; Table 7, 70 g ae/ha",0%
same,Mean Visual Injury (%)-21 Days After Application ORYSA ‘Wells’,"[6]; Table 7, 140 g ae/ha",5%
same,GR50 ORYSA ‘Wells’,[6]; [7],>140 g ae/ha
same,GR90 ORYSA ‘Wells’,[6]; [8],>140 g ae/ha

# From patent US9518018B2, “3-alkoxy, thioalkyl and amino-4-amino-6-(substituted)picolinates and their use as herbicides” (Dow AgroSciences LLC, priority 2011, dated 2016)
